The assay addresses Mitogen-activated protein kinase 1 (Mus musculus, UniProt P63085). Briefly: Active ERK2 (aERK) Assay: Activated ERK2 activity was also determined in the IMAP assay format using the procedure outlined above. 1 μl of 25× compound was added to 14 μl of kinase buffer containing 0.25 ng fully phosphorylated, active Mouse ERK2 protein. Following a 30 minute incubation, the reactions were initiated by addition of 10 μl of kinase buffer containing 1 μM ERK2 IMAP substrate peptide (0.9 μM unlabeled IPTTPITTTYFFFK-CONH2 and 100 nM IPTTPITTTYFFFK(5-carboxyfluorescein)-CONH2) and 30 μM ATP. Reactions proceeded for 30 minutes before termination by addition of 60 μl IMAP detection beads in binding buffer. Plates were read as above after 30 minute binding equilibration. Active compounds were reconfirmed in an independent assay.

What is called IC50 is the concentration needed to halve the response being measured. Low values mean greater potency, high ones weaker potency.

Mitogen-activated protein kinase 1, sequence (P63085 whole entry): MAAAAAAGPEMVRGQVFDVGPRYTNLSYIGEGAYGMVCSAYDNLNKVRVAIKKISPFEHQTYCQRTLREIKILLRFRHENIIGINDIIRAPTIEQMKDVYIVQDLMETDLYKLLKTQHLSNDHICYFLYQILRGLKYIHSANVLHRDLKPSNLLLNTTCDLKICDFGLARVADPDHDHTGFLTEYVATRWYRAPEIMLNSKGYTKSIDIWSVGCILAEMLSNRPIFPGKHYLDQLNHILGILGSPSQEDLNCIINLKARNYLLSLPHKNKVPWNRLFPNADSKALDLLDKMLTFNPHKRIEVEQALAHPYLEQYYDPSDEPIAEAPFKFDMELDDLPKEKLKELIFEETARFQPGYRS

Molecule `Cc1cc(-c2n[nH]c3ccc(C(=O)N[C@H]4CCC[C@@](O)(Cn5cc6cc(F)ccc6n5)C4)cc23)ccn1` (relative stereo) displayed an IC50 of 772 nM.

Take `Cc1cc(-c2n[nH]c3ccc(C(=O)N[C@@H]4CCC[C@](O)(Cn5cc6cccnc6n5)C4)cc23)ccn1` (relative stereo): the IC50 worked out at 404 nM.

The values are drawn from ChEMBL document CHEMBL3886748, “Indazole derivatives useful as ERK inhibitors” (2016).
